From patent US5474989A, “Drug composition” (priority 1988, dated 1995)

Tests used:
[1] = Dissolution rate of drug into water, solid dispersion with low molecular weight chitosan C-5 versus drug alone (Example 4); type: physicochemical; conditions: drug alone without additive; 10 to 30 mg in 60 ml, 57 rpm, water 37° C.
Protocol: Each 3 parts by weight of the chitosan products C-0 to C-5 was added to 1 part by weight of flurbiprofen (denoted sometimes hereinafter as FP) and the mixture kneaded with the addition of water in an amount of 2-fold of that of the chitosan product for 1 hour. The kneaded mixture was dried under a reduced pressure at room temperature for 48 hours. A fraction of the particles that passed through 100-mesh standard sieve was employed as the solid dispersion. For each of these solid dispersions, the dissolution rate of FP into water at 37° C. was observed by the procedure given below:
500 ml of water were charged in a dissolution rate measuring device (made by Toyama Sangyo Co., Ltd.) maintained at 37° C. and thereto was further added each of the above solid dispersions in an amount corresponding to 40 mg as FP and the mixture was agitated at 91 rpm. The agitated mixture was sampled each in an amount of 3 ml at a regular time interval with a pipette fitted with a cotton plug. Each sample was filtered through a 0.45 μm membrane filter and the FP concentration of the filtrate was determined after extraction with chloroform.
The rate of dissolution was determined for drug compositions having the low molecular weight chitosan C-5 obtained in Reference Example 1, by observing the concentration of the drug in the same manner as in Example 1 at a regular time interval except that the drug was charged in an amount within the range of from 10 to 30 mg in 60 ml of solution and the agitation was effected at 57 rpm. The ratio of the dissolved amount of drug to the total charged amount of the drug was calculated. Results are summarized in FIGS. 5(A)- 5(G) in a corresponding graph. The experimental results for flurbiprofen are given here again.
The average dissolution time calculated from the rate of dissolution for each drug is recited in Table 3. The calculation of the average dissolution time was made basing on the method given in "Chem. Pharm. Bull.", 30, 1088 (1982).

[2] = Wetting contact angle of water drops on tablet surface (Example 7); type: physicochemical; conditions: tablet 2 cm diameter, 50 μl water drop
Protocol: Examination was effected for the samples of the solid dispersions as obtained in Example 5 and for each drug alone without any additive. The wetting was evaluated by determining the wetting contact angle of water drops on the surface of a tablet having a diameter of 2 cm obtained using an IR tabletting machine with a drop of water of 50 μl.

[3] = Solubility of drugs in aqueous solutions of low molecular weight chitosan C-5 (Example 3); conditions: aqueous solution of C-5, varying concentration, 25° C., 10 days
Protocol: Each 5 mg of vitamin E and vitamin K was accurately weighed (this amount is chosen so as to exceed above the solubility limits of these drugs) and placed in a test tube. […] Each of the solutions which reached dissolution equilibrium was sampled with a pippette fitted with a cotton plug. The sample was filtered through a 0.45 μm membrane filter and the concentration of vitamin E or vitamin K was determined by means of UV-determination after extraction with chloroform.

[4] = chitosan in a form of a solution of acetic acid salt, versus polyvinylpyrrolidone; cited from earlier work

Structure (SMILES): C[C@]12C=CC(=O)C=C1CC[C@@H]1[C@@H]2[C@@H](O)C[C@@]2(C)[C@H]1CC[C@]2(O)C(=O)CO [Prednisolone, prednisolone]
- Average Dissolution Time, Drug alone [1]: 18.7 min

Structure (SMILES): COc1ccc2c(c1)c(CC(=O)O)c(C)n2C(=O)c1ccc(Cl)cc1 [Indomethacin, indomethacin]
- Average Dissolution Time, Drug alone [1]: 24.8 min
- Wetting Contact Angle, Drug alone [2]: 50 °

Structure (SMILES): C[C@]12C=CC(=O)C=C1CC[C@H]1[C@@H]3C[C@@H](O)[C@](O)(C(=O)CO)[C@@]3(C)C[C@H](O)[C@@]12F [Triamcinolone, triamcinolone]
- Average Dissolution Time, Drug alone [1]: 24.3 min
- Wetting Contact Angle, Drug alone [2]: 50 °

Structure (SMILES): C[C@H]1O[C@@H](O[C@H]2[C@@H](O)C[C@H](O[C@H]3[C@@H](O)C[C@H](O[C@H]4CC[C@@]5(C)[C@H](CC[C@@H]6[C@@H]5C[C@@H](O)[C@]5(C)[C@@H](C7=CC(=O)OC7)CC[C@]65O)C4)O[C@@H]3C)O[C@@H]2C)C[C@H](O)[C@@H]1O [Digoxin, digoxin]
- solubility of drug with increasing concentration of low molecular weight chitosan [3]: an increase in the solubility of the drug was recognized
- Average Dissolution Time, Drug alone [1]: 40.9 min

Structure (SMILES): C[C@H]1C[C@H]2[C@@H]3CCC4=CC(=O)C=C[C@]4(C)[C@@]3(F)[C@@H](O)C[C@]2(C)[C@@]1(O)C(=O)CO [Betamethasone, betamethasone]
- dissolution characteristic curve type [3]: dissolution characteristic curve of Bs-type
- Average Dissolution Time, Drug alone [1]: 45.9 min

Structure (SMILES): CC(C(=O)O)c1ccc(-c2ccccc2)c(F)c1 (centres unmarked) [Flurbiprofen, flurbiprofen]
- Average Dissolution Time, Drug alone [1]: 46.1 min
- Wetting Contact Angle, Drug alone [2]: 55 °

Structure (SMILES): O=C1NC(=O)C(c2ccccc2)(c2ccccc2)N1 [Phenytoin, phenytoin]
- solubility of drug with increasing concentration of low molecular weight chitosan [3]: an increase in the solubility of the drug was recognized
- Average Dissolution Time, Drug alone [1]: 35.9 min

Structure (SMILES): CO[C@@H]1[C@@H](O[C@@H]2O[C@H](C)[C@@H](O[C@H]3C[C@@](C)(O)[C@@H](OC(=O)CC(C)C)[C@H](C)O3)[C@H](N(C)C)[C@H]2O)[C@@H](CC=O)C[C@@H](C)[C@@H](O)/C=C/C=C/C[C@@H](C)OC(=O)C[C@H]1O [kitasamycin]
- effect of chitosan on the dissolution rate of kitasamycin [4]: lower than that of polyvinylpyrrolidone
